Test [1] relates to Nectin-4. In words: RT112/84 in vitro Nectin-4 receptor density (flow cytometry). It is filed as cell-based. The settings on record: RT112/84 cells; 100 nM pemigatinib, 100 nM EV or both; different time points after treatment. The procedure:
The effect of combining pemigatinib plus enfortumab vedotin (“EV”) (Padcev, Refdrug Inc.) on Nectin-4 receptor density was assessed in vitro in the RT112/84 bladder cancer cell line. Briefly, RT112/84 cells were treated with either 100 nM pemigatinib, 100 nM EV, or the combination of both. The receptor density of Nectin-4 was then assessed by flow cytometry upon a LSRFortessa X-20 instrument (BD Biosciences) with Quantibrite phycoerythrin (PE) beads (BD Biosciences Cat No 340495) using an anti-Nectin-4 PE conjugated antibody (RnD Systems Cat No FAB2659) at different time points after treatment (FIG. 2A).
For orientation: In flow cytometry, cells or beads pass a laser one at a time.

A further test concerns ERK. In words: RT112/84 in vivo pERK inhibition (tumor lysates, MSD). The settings on record: RT112/84 tumor bearing NSG mice; pemigatinib 1 mg/kg oral, EV 3 mg/kg intravenous; tumors collected 4 h post dose. The procedure: Tumors were then processed and levels of phospho ERK were assessed on tumor lysates by MSD (Mesoscale).
Test [2] concerns Nectin-4. In words: RT112/84 in vivo Nectin-4 receptor density (xenograft, flow cytometry). The settings on record: RT112/84 tumor bearing NSG mice; pemigatinib 0.3 or 1 mg/kg oral, EV 3 mg/kg intravenous; tumors collected 4 h post dose.
Method: The effect of combining pemigatinib plus EV (Padcev, Refdrug Inc.) on Nectin-4 receptor density was also assessed in vivo in the RT112/84 bladder cancer xenograft model (FIG. 2B) in 6 to 8 weeks old NSG mice (Jackson laboratories). Pemigatinib was suspended in 5% N,N-dimethyl acetamide (DMAC)+50 mM Citrate buffer in 0.5% methyl cellulose for oral administration and EV was suspended in saline for intravenous administration. Briefly, the left flanks of the mice were shaved the day prior to subcutaneous inoculation with 2×10^6 RT112/84 suspended in matrigel (Corning Life Sciences, Tewksbury, Mass.). On day 16, mice were dosed with (i) vehicle; (ii) 0.3 mg/kg of pemigatinib; (iii) 1 mg/kg of pemigatinib; (iv) 3 mg/kg of EV; (v) 0.3 mg/kg of pemigatinib and 3 mg/kg of EV; or (vi) 1 mg/kg of pemigatinib and 3 mg/kg of EV, and tumors were collected 4 h post dose.
Test [3] concerns UM-UC-14 cancer xenograft model. Briefly: UM-UC-14 xenograft model, tumor growth. It is filed as in vivo, mice. Conditions: single agent.
Test [4] has as its system RT112/84 bladder cancer xenograft model. Briefly: RT112/84 xenograft model, tumor growth (6 groups). It is filed as in vivo, mice.
Method: The in vivo effect of combining pemigatinib plus EV (Padcev, Refdrug Inc.) was assessed in the RT112/84 bladder cancer (85061106, Sigma/ECACC, UK) xenograft model (FIG. 4) in 6 to 8 weeks old NSG mice (Jackson laboratories). Pemigatinib was suspended in 5% N,N-dimethyl acetamide (DMAC)+50 mM Citrate buffer in 0.5% methyl cellulose for oral administration and EV was suspended in saline for intravenous administration. Briefly, the left flank of the mice were shaved the day prior to subcutaneous inoculation with 2×10^6 RT112/84 suspended in matrigel (Corning Life Sciences, Tewksbury, Mass.). On day 7, tumor dimensions were measured by Vernier calipers, and volume estimated by the formula Volume=[L (long dimension)×W2 (short dimension)]/2. Mice were randomized into 6 groups of 10 mice of approximate mean volume (˜200 mm^3). Tumors were measured 3 times per week for the duration of the study. Starting day 7, mice were dosed with (i) vehicle; (ii) 0.3 mg/kg of pemigatinib; (iii) 1 mg/kg of pemigatinib; (iv) 3 mg/kg of EV; (v) 0.3 mg/kg of pemigatinib and 3 mg/kg of EV; or (vi) 1 mg/kg of pemigatinib and 3 mg/kg of EV. Pemigatinib was administered orally once daily (QD) for 10 days, while EV was dosed every 4 days (for a total of 2 doses).
Setting [5] is: pemigatinib 0.3 mg/kg oral QD for 10 days.
[6] abbreviates: pemigatinib 1 mg/kg oral QD for 10 days.

Take `CCN1C(=O)N(c2c(F)c(OC)cc(OC)c2F)Cc2cnc3[nH]c(CN4CCOCC4)cc3c21` [pemigatinib, 3-(2,6-difluoro-3,5-dimethoxyphenyl)-1-ethyl-8-(morpholin-4-ylmethyl)-1,3,4,7-tetrahydro-2H-pyrrolo[3′,2′:5,6]pyrido[4,3-d]pyrimidin-2-one]: in the test on Nectin-4 [1], the Nectin-4 receptor density entry is given as “did not induce changes in Nectin-4 receptor density”. The “phosphorylation of ERK in tumor” value in the test on ERK is reported as “decrease phosphorylation of ERK”. Moreover, the “Nectin-4 receptor density in tumor cells” value with Nectin-4 [2] was “did not induce changes in Nectin-4 receptor density”. Also, the “therapeutic effect in delaying tumor growth vs vehicle” value is listed as “only pemigatinib 1 mg/kg treatment had a therapeutic effect” in test [3] (setting [5]); “had a therapeutic effect in delaying tumor growth as single agent” in test [3] (setting [6]); “all the treatments, with the exemption of pemigatinib 0.3 mg/kg, had a therapeutic effect” in test [4] (setting [5]); “had a therapeutic effect in delaying tumor growth” in test [4] (setting [6]).

These data come from patent US12065494B2, “Combination therapy comprising an FGFR inhibitor and a Nectin-4 targeting agent” (Incyte Corporation, priority 2021, dated 2024).
